According to patent US12194011B2, “Compositions comprising theanine, magnolia, and phellodendron” (Nutramax Laboratories, Inc., priority 2015, dated 2025):

What was measured:
[1] = tested on: serotonin (5-HT); test: Basal serotonin (5-HT) output in hippocampal microdialysate after 6 daily oral doses; format: in vivo; conditions: male C57BI mice, basal level before 7th dose, hippocampal dialysate, student's t-test p<0.05
Description: (§1) Neurotransmitter release patterns in the brain were measured by a procedure which involved inserting a probe into the […] region (microdialysis probe) of a laboratory animal and flushing the probe via dialysis with an artificial cerebrospinal fluid (CSF). This is an accepted and common method used to obtain and measure in vivo brain levels of neurotransmitters and other small […].
(§2) The fluid being collected represents the extracellular or interstitial fluid found in the hippocampal region of the brain. This area is usually the preferred and typical area for microdialysis analysis because any changes measured in this area of the brain are believed to correspond with approximately 80% of whole brain tissue. […]
(§3) For the evaluation, male C57BI mice were divided into groups (6 per group) and administered a variety of compounds or a placebo orally for seven days. […] Each aliquot was then analyzed to determine the amount of GABA, glutamate, and serotonin (5-HT) in each sample. […]
(§4) First, basal output levels of each neurotransmitter were measured to determine any long-term, chronic effects of each compound on the neurotransmitters. […] These levels were determined by averaging the levels of each neurotransmitter in the three, 30-minute aliquots prior to the administration of the 7th daily dose (Sample −90 min to −60, Sample −60 minutes to −30, and Sample −30 minutes to time 0). […]

[2] = tested on: GABA; test: Acute GABA output in hippocampal microdialysate after the 7th daily dose; format: in vivo, C57BI mice; conditions: up to 210 minutes after 7th daily dose, % of basal output, ANOVA p<0.05
Description: as §1, §2, §3, §4

[3] = tested on: glutamate; test: Acute glutamate output in hippocampal microdialysate after the 7th daily dose; format: in vivo, C57BI mice; conditions: after 7th daily dose, % of basal output
Description: as §1, §2, §3, §4

[4] = tested on: Wistar rats; test: Elevated plus-maze (EPM) test; format: in vivo; conditions: PO daily for 14 days, 16 per group, vehicle 10 ± 2
Description: (§5) Wistar rats (16 per group) were dosed either with individual components (L-theanine, magnolia/phellodendron, and milk whey protein) or several combinations of the three, including the three-way combination (theanine+magnolia/phellodendron+milk whey protein). Magnolia/phellodendron combination was provided as a commercially available preparation (RELORA; InterHealth Nutraceuticals, Inc., Benicia, CA). Administered milk whey protein was standardized to 80% alpha-lactalbumin. The rats were dosed daily for 14 days, and then a series of behavioral assays were performed to detect any anxiolytic effects on the rats or sedative effects. The treatment groups were as follows: • 1: L-theanine+magnolia/phellodendron • 2: L-theanine+Milk Whey Protein • 3: magnolia/phellodendron+Milk Whey Protein • 4: L-theanine+magnolia/phellodendron+Milk Whey Protein • 5: L-theanine • 6: magnolia/phellodendron • 7: Milk Whey Protein
The elevated plus-maze (EPM) capitalizes on the natural aversion (trait anxiety) of rodents on brightly lit, open, and elevated areas. The EPM has very strong predictive ability and is often used to profile the potential anxiolytic activity of compounds. During this test, the rats are videotaped after being placed in the elevated maze. The videos are analyzed to determine the % of time the rats stay in the open, elevated portions of the maze. […]

[5] = tested on: Wistar rats; test: Open-field activity as a measure of sedation; format: in vivo; conditions: PO daily for 14 days, vehicle 9062 ± 597
Description: as §5
Locomotor activity in an open field test is a good measure of the sedative properties of a compound. As one example, a noted side-effect of many anxiolytic compounds such as benzodiazepines is marked sedation in conjunction with administration. […]
This test is performed by placing a rat in an open, brightly lit enclosure. The rats are videotaped, and the total distance the rat travels during the testing period is recorded as an indicator of locomotor activity. […]

CCNC(=O)CC[C@H](N)C(=O)O [Compound A, L-theanine]
effect on basal output of serotonin (5-HT) vs placebo [1]: none of L-theanine, Relora, nor milk whey protein had any significant effect
acute treatment effect on GABA vs placebo (ANOVA) [2]: no statistically significant treatment effects
immediate treatment effect on glutamate levels [3]: neither the individual components (A, B, C) nor the combination (A+B+C) had an immediate treatment effect
Mean % Time in open arms ± SEM [4]: 13 ± 2%
Mean Distance (cm) ± SEM [5]: 9971 ± 652 cm
